In US20240299385A1 (ReWind Therapeutics NV, priority 2021, published 2024):

Molecular target: T1, human GPR17 receptor (Homo sapiens, UniProt Q13304)
T1 construct: host or cells: HEK-293
Test: Calcium mobilization functional assay (Fluo-8, FLIPR TETRA) in HEK-293 hGPR17 (Gα-q assay)
Type: cell-based
Conditions: antagonism of MDL29,951 (~EC80) induced Ca2+ signal; cell line (HEK-293 hGPR17 or HEK-293 Suchi5 hGPR17) not given
Summary of the method: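 Fluo-8-loaded HEK-293 hGPR17 cells (60 min dye loading, room temperature) were preincubated with compound for twenty minutes, then challenged with agonist MDL29,951 at ~EC80, 500 nM. Intracellular calcium release via Gα-q was recorded as FLIPR fluorescence for a further 2 minutes; compounds tested in duplicate.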

T1 sequence (Q13304 whole entry): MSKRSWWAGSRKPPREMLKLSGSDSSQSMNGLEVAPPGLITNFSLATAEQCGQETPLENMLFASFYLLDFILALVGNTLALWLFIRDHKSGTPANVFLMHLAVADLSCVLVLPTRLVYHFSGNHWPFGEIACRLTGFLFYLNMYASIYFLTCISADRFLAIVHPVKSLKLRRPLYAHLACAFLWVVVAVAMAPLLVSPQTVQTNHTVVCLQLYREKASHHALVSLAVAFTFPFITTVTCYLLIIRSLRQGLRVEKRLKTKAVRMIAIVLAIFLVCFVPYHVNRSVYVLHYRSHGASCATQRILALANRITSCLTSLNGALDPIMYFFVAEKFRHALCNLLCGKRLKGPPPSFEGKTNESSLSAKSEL

SMILES	IC50
COc1c(F)cccc1-c1cc(S(=O)(=O)Nc2ccc(C#N)cc2F)c[nH]1 [Cpd 290, N-(4-cyano-2-fluoro-phenyl)-5-(3-fluoro-2-methoxy-phenyl)-1H-pyrrole-3-sulfonamide]	< 0.5 µM
N#Cc1ccc(NS(=O)(=O)c2c[nH]c(-c3ccc(F)c(F)c3)c2)c(F)c1 [Cpd 291, N-(4-cyano-2-fluoro-phenyl)-5-(3,4-difluorophenyl)-1H-pyrrole-3-sulfonamide]	0.5 to 5 µM
N#Cc1ccc(NS(=O)(=O)c2c[nH]c(-c3cccc(Cl)c3Cl)c2)c(F)c1 [Cpd 292, N-(4-cyano-2-fluoro-phenyl)-5-(2,3-dichlorophenyl)-1H-pyrrole-3-sulfonamide]	0.5 to 5 µM
Cc1ccc(-c2cc(S(=O)(=O)Nc3cc(F)c(C(F)(F)F)cc3F)c[nH]2)c(F)c1 [Cpd 293, N-[2,5-difluoro-4-(trifluoromethyl)phenyl]-5-(2-fluoro-4-methyl-phenyl)-1H-pyrrole-3-sulfonamide]	5 to 50 µM
COc1ccc(-c2cc(S(=O)(=O)Nc3cc(F)c(C(F)(F)F)cc3F)c[nH]2)cc1 [Cpd 294, N-[2,5-difluoro-4-(trifluoromethyl)phenyl]-5-(4-methoxyphenyl)-1H-pyrrole-3-sulfonamide]	5 to 50 µM
Cc1ccc(-c2cc(S(=O)(=O)Nc3cc(F)c(C(F)(F)F)cc3F)c[nH]2)cc1 [Cpd 295, N-[2,5-difluoro-4-(trifluoromethyl)phenyl]-5-(p-tolyl)-1H-pyrrole-3-sulfonamide]	5 to 50 µM
Cc1ccc(Cl)cc1-c1cc(S(=O)(=O)Nc2ccc(C#N)cc2F)c[nH]1 [Cpd 296, 5-(5-chloro-2-methyl-phenyl)-N-(4-cyano-2-fluoro-phenyl)-1H-pyrrole-3-sulfonamide]	0.5 to 5 µM
O=S(=O)(Nc1cc(F)c(C(F)(F)F)cc1F)c1c[nH]c(-c2ccc(Cl)cc2)c1 [Cpd 297, 5-(4-chlorophenyl)-N-[2,5-difluoro-4-(trifluoromethyl)phenyl]-1H-pyrrole-3-sulfonamide]	5 to 50 µM
COc1ccccc1-c1cc(S(=O)(=O)Nc2cc(F)c(C(F)(F)F)cc2F)c[nH]1 [Cpd 298, N-[2,5-difluoro-4-(trifluoromethyl)phenyl]-5-(2-methoxyphenyl)-1H-pyrrole-3-sulfonamide]	0.5 to 5 µM
COc1cc(F)cc(-c2cc(S(=O)(=O)Nc3ccc(C#N)cc3F)c[nH]2)c1 [Cpd 299, N-(4-cyano-2-fluoro-phenyl)-5-(3-fluoro-5-methoxy-phenyl)-1H-pyrrole-3-sulfonamide]	0.5 to 5 µM
COc1ccc(-c2cc(S(=O)(=O)Nc3ccc(C#N)cc3F)c[nH]2)c(Cl)c1 [Cpd 300, 5-(2-chloro-4-methoxy-phenyl)-N-(4-cyano-2-fluoro-phenyl)-1H-pyrrole-3-sulfonamide]	0.5 to 5 µM
O=S(=O)(Nc1cc(F)c(C(F)(F)F)cc1F)c1c[nH]c(-c2cccc(F)c2F)c1 [Cpd 301, 5-(2,3-difluorophenyl)-N-[2,5-difluoro-4-(trifluoromethyl)phenyl]-1H-pyrrole-3-sulfonamide]	0.5 to 5 µM
O=S(=O)(Nc1cc(F)c(C(F)(F)F)cc1F)c1c[nH]c(-c2cscn2)c1 [Cpd 302, N-[2,5-difluoro-4-(trifluoromethyl)phenyl]-5-thiazol-4-yl-1H-pyrrole-3-sulfonamide]	< 0.5 µM
Cc1ccnc(-c2cc(S(=O)(=O)Nc3cc(F)c(C(F)(F)F)cc3F)c[nH]2)c1 [Cpd 303, N-[2,5-difluoro-4-(trifluoromethyl)phenyl]-5-(4-methyl-2-pyridyl)-1H-pyrrole-3-sulfonamide]	0.5 to 5 µM
COc1ccc(-c2cc(S(=O)(=O)Nc3cc(F)c(C(F)(F)F)cc3F)c[nH]2)nc1 [Cpd 304, N-[2,5-difluoro-4-(trifluoromethyl)phenyl]-5-(5-methoxy-2-pyridyl)-1H-pyrrole-3-sulfonamide]	0.5 to 5 µM
COc1ccnc(-c2cc(S(=O)(=O)Nc3cc(F)c(C(F)(F)F)cc3F)c[nH]2)c1 [Cpd 305, N-[2,5-difluoro-4-(trifluoromethyl)phenyl]-5-(4-methoxy-2-pyridyl)-1H-pyrrole-3-sulfonamide]	0.5 to 5 µM
Cc1cccc(Cc2c[nH]cc2S(=O)(=O)Nc2ccc(C#N)cc2F)c1 [Cpd 306, N-(4-cyano-2-fluoro-phenyl)-4-(m-tolylmethyl)-1H-pyrrole-3-sulfonamide]	0.5 to 5 µM
N#Cc1ccc(NS(=O)(=O)c2c[nH]cc2Cc2cccc(C(F)(F)F)c2)c(F)c1 [Cpd 307, N-(4-cyano-2-fluoro-phenyl)-4-[[3-(trifluoromethyl)phenyl]methyl]-1H-pyrrole-3-sulfonamide]	0.5 to 5 µM
N#Cc1ccc(NS(=O)(=O)c2c[nH]cc2Cc2cccc(OC(F)(F)F)c2)c(F)c1 [Cpd 308, N-(4-cyano-2-fluoro-phenyl)-4-[[3-(trifluoromethoxy)phenyl]methyl]-1H-pyrrole-3-sulfonamide]	0.5 to 5 µM
N#Cc1ccc(NS(=O)(=O)c2c[nH]cc2Cc2cccc(OC(F)F)c2)c(F)c1 [Cpd 309, N-(4-cyano-2-fluoro-phenyl)-4-[[3-(difluoromethoxy)phenyl]methyl]-1H-pyrrole-3-sulfonamide]	< 0.5 µM
N#Cc1ccc(NS(=O)(=O)c2c[nH]c(-c3ncccc3C(F)(F)F)c2)c(F)c1 [Cpd 310, N-(4-cyano-2-fluoro-phenyl)-5-[3-(trifluoromethyl)-2-pyridyl]-1H-pyrrole-3-sulfonamide]	0.5 to 5 µM
O=S(=O)(Nc1cc(F)c(OC2CC2)cc1F)c1c[nH]c(-c2ccccn2)c1 [Cpd 311, N-[4-(cyclopropoxy)-2,5-difluoro-phenyl]-5-(2-pyridyl)-1H-pyrrole-3-sulfonamide]	0.5 to 5 µM
N#Cc1ccc(NS(=O)(=O)c2c[nH]c(-c3ccccc3)c2)c(F)c1Cl [Cpd 312, N-(3-chloro-4-cyano-2-fluoro-phenyl)-5-phenyl-1H-pyrrole-3-sulfonamide]	0.5 to 5 µM
O=S(=O)(Nc1ccc(C(F)(F)F)cc1F)c1c[nH]c(-c2ccccc2)c1 [Cpd 313, N-[2-fluoro-4-(trifluoromethyl)phenyl]-5-phenyl-1H-pyrrole-3-sulfonamide]	0.5 to 5 µM
COc1ccc(F)cc1-c1cc(S(=O)(=O)Nc2ccc(C#N)cc2F)c[nH]1 [Cpd 314, N-(4-cyano-2-fluoro-phenyl)-5-(5-fluoro-2-methoxy-phenyl)-1H-pyrrole-3-sulfonamide]	0.5 to 5 µM
Cc1ccc(F)c(-c2cc(S(=O)(=O)Nc3cc(F)c(C(F)(F)F)cc3F)c[nH]2)c1 [Cpd 315, N-[2,5-difluoro-4-(trifluoromethyl)phenyl]-5-(2-fluoro-5-methyl-phenyl)-1H-pyrrole-3-sulfonamide]	0.5 to 5 µM
N#Cc1ccc(NS(=O)(=O)c2c[nH]c(-c3cc(F)cc(Cl)c3)c2)c(F)c1 [Cpd 316, 5-(3-chloro-5-fluoro-phenyl)-N-(4-cyano-2-fluoro-phenyl)-1H-pyrrole-3-sulfonamide]	0.5 to 5 µM
N#Cc1ccc(NS(=O)(=O)c2c[nH]c(-c3ccccc3)c2)c(F)c1F [Cpd 317, N-(4-cyano-2,3-difluoro-phenyl)-5-phenyl-1H-pyrrole-3-sulfonamide]	0.5 to 5 µM
N#Cc1cccc(-c2cc(S(=O)(=O)Nc3cc(F)c(C(F)(F)F)cc3F)c[nH]2)c1 [Cpd 318, 5-(3-cyanophenyl)-N-[2,5-difluoro-4-(trifluoromethyl)phenyl]-1H-pyrrole-3-sulfonamide]	< 0.5 µM
